In ChEMBL document CHEMBL3885861, “Open TG-GATES”:

Organism: Rattus norvegicus
Assay: Open TG-GATES - Regimen: Single
Assay type: toxicity, organism-based, Sprague-Dawley
Set-up: regimen Single, gender Male, age 6 weeks
Details: in vivo, po, 300 mg/kg, route gavage, dose level Middle; for APTT / Bas / Eos / Fbg / Hb / Ht / Lym / MCH / MCHC / MCV / Mono / Neu / PT / Plat / RBC / Ret / WBC: tissue Blood; for KIDNEY_L / KIDNEY_R / KIDNEY_TOTAL: tissue Kidney; for LIVER: tissue Liver; for A/G / ALP / ALT / AST / BUN / CRE / Ca / Cl / DBIL / GLC / IP / K / LDH / Na / PL / RALB / TBIL / TC / TG / TP / gamma-GTP: tissue Plasma

CC[C@@H](CO)NCCN[C@@H](CC)CO [ETHAMBUTOL]
TERMINAL_BW (3 h): 232.2 g
APTT (3 h): 22.9 s
Bas (3 h): 0%
Eos (3 h): 0.6%
Fbg (3 h): 301.8 mg/dL
Hb (3 h): 13.7 g/dL
Ht (3 h): 40.8%
Lym (3 h): 78%
MCH (3 h): 22 pg
MCHC (3 h): 33.6%
MCV (3 h): 65.5 fL
Mono (3 h): 2.8%
Neu (3 h): 18.2%
PT (3 h): 15.5 s
Plat (3 h): 120.7 x10_4/uL
RBC (3 h): 623.8 x10_4/ul
Ret (3 h): 8.5%
WBC (3 h): 63.4 x10_2/uL
KIDNEY_L (3 h): 1 g
KIDNEY_R (3 h): 1 g
KIDNEY_TOTAL (3 h): 2 g
LIVER (3 h): 10.9 g
A/G (3 h): 1.3
ALP (3 h): 1703.4 IU/L
ALT (3 h): 42.6 IU/L
AST (3 h): 68.2 IU/L
BUN (3 h): 12.2 mg/dL
CRE (3 h): 0.1 mg/dL
Ca (3 h): 10.3 mg/dL
Cl (3 h): 106.8 meq/L
DBIL (3 h): 0.002 mg/dL
GLC (3 h): 190 mg/dL
IP (3 h): 8.9 mg/dL
K (3 h): 3.8 meq/L
LDH (3 h): 187.2 IU/L
Na (3 h): 141 meq/L
PL (3 h): 137.4 mg/dL
RALB (3 h): 3 g/dL
TBIL (3 h): 0.02 mg/dL
TC (3 h): 78.2 mg/dL
TG (3 h): 54.2 mg/dL
TP (3 h): 5.4 g/dL
gamma-GTP (3 h): 1.6 IU/L
TERMINAL_BW (6 h): 224.6 g
APTT (6 h): 22.5 s
Bas (6 h): 0%
Eos (6 h): 1.2%
Fbg (6 h): 321.2 mg/dL
Hb (6 h): 14 g/dL
Ht (6 h): 41%
Lym (6 h): 75%
MCH (6 h): 21.5 pg
MCHC (6 h): 34.1%
MCV (6 h): 63.1 fL
Mono (6 h): 2.2%
Neu (6 h): 20.6%
PT (6 h): 15.6 s
Plat (6 h): 124.9 x10_4/uL
RBC (6 h): 649.8 x10_4/ul
Ret (6 h): 7.7%
WBC (6 h): 89.1 x10_2/uL
KIDNEY_L (6 h): 1 g
KIDNEY_R (6 h): 1 g
KIDNEY_TOTAL (6 h): 2 g
LIVER (6 h): 9.9 g
A/G (6 h): 1.1
ALP (6 h): 1416.2 IU/L
ALT (6 h): 39.4 IU/L
AST (6 h): 68.6 IU/L
BUN (6 h): 10 mg/dL
CRE (6 h): 0.1 mg/dL
Ca (6 h): 10.2 mg/dL
Cl (6 h): 106 meq/L
DBIL (6 h): 0.002 mg/dL
GLC (6 h): 183.6 mg/dL
IP (6 h): 9.1 mg/dL
K (6 h): 4.1 meq/L
LDH (6 h): 169 IU/L
Na (6 h): 141 meq/L
PL (6 h): 139.8 mg/dL
RALB (6 h): 2.9 g/dL
TBIL (6 h): 0.022 mg/dL
TC (6 h): 74.6 mg/dL
TG (6 h): 76.6 mg/dL
TP (6 h): 5.5 g/dL
gamma-GTP (6 h): 1.8 IU/L
TERMINAL_BW (9 h): 217.6 g
APTT (9 h): 23 s
Bas (9 h): 0%
Eos (9 h): 0.6%
Fbg (9 h): 334 mg/dL
Hb (9 h): 13.6 g/dL
Ht (9 h): 40.2%
Lym (9 h): 74.4%
MCH (9 h): 21.4 pg
MCHC (9 h): 33.7%
MCV (9 h): 63.5 fL
Mono (9 h): 1.8%
Neu (9 h): 22.2%
PT (9 h): 16.1 s
Plat (9 h): 122 x10_4/uL
RBC (9 h): 633.4 x10_4/ul
Ret (9 h): 7.8%
WBC (9 h): 74.5 x10_2/uL
KIDNEY_L (9 h): 1 g
KIDNEY_R (9 h): 1 g
KIDNEY_TOTAL (9 h): 2.1 g
LIVER (9 h): 9.7 g
A/G (9 h): 1.2
ALP (9 h): 1255.8 IU/L
ALT (9 h): 37 IU/L
AST (9 h): 68.2 IU/L
BUN (9 h): 9.6 mg/dL
CRE (9 h): 0.1 mg/dL
Ca (9 h): 10.4 mg/dL
Cl (9 h): 107 meq/L
DBIL (9 h): 0 mg/dL
GLC (9 h): 176.8 mg/dL
IP (9 h): 9.4 mg/dL
K (9 h): 3.9 meq/L
LDH (9 h): 139.4 IU/L
Na (9 h): 141.6 meq/L
PL (9 h): 136.8 mg/dL
RALB (9 h): 3 g/dL
TBIL (9 h): 0.036 mg/dL
TC (9 h): 78.6 mg/dL
TG (9 h): 53.4 mg/dL
TP (9 h): 5.6 g/dL
gamma-GTP (9 h): 1.8 IU/L
TERMINAL_BW (24 h): 235.9 g
APTT (24 h): 22 s
Bas (24 h): 0%
Eos (24 h): 1%
Fbg (24 h): 339.2 mg/dL
Hb (24 h): 13.7 g/dL
Ht (24 h): 39.7%
Lym (24 h): 81.6%
MCH (24 h): 22 pg
MCHC (24 h): 34.6%
MCV (24 h): 63.5 fL
Mono (24 h): 3%
Neu (24 h): 13.2%
PT (24 h): 15.9 s
Plat (24 h): 117.6 x10_4/uL
RBC (24 h): 625.8 x10_4/ul
Ret (24 h): 7.3%
WBC (24 h): 107.5 x10_2/uL
KIDNEY_L (24 h): 1.1 g
KIDNEY_R (24 h): 1.1 g
KIDNEY_TOTAL (24 h): 2.2 g
LIVER (24 h): 12.3 g
A/G (24 h): 1.2
ALP (24 h): 1520.4 IU/L
ALT (24 h): 46 IU/L
AST (24 h): 69.4 IU/L
BUN (24 h): 14.6 mg/dL
CRE (24 h): 0.1 mg/dL
Ca (24 h): 10.5 mg/dL
Cl (24 h): 105.2 meq/L
DBIL (24 h): 0 mg/dL
GLC (24 h): 187.4 mg/dL
IP (24 h): 8.5 mg/dL
K (24 h): 3.9 meq/L
LDH (24 h): 145.8 IU/L
Na (24 h): 141 meq/L
PL (24 h): 155.6 mg/dL
RALB (24 h): 3.1 g/dL
TBIL (24 h): 0.014 mg/dL
TC (24 h): 82.4 mg/dL
TG (24 h): 89.4 mg/dL
TP (24 h): 5.7 g/dL
gamma-GTP (24 h): 2 IU/L
